Source: paper PMC2806516 (Biochemistry, 2010)

Assays:
[1] = target: HpaA, oxygenase of p-hydroxyphenylacetate 3-hydroxylase (HPAH) from Pseudomonas aeruginosa, N-terminal His-tagged (P. aeruginosa); test: SEC
HpaA [2] = target: T1, HpaA (Pseudomonas aeruginosa, UniProt Q9HWT7); test: stopped-flow; type: binding
T1 sequence (Q9HWT7 1-520): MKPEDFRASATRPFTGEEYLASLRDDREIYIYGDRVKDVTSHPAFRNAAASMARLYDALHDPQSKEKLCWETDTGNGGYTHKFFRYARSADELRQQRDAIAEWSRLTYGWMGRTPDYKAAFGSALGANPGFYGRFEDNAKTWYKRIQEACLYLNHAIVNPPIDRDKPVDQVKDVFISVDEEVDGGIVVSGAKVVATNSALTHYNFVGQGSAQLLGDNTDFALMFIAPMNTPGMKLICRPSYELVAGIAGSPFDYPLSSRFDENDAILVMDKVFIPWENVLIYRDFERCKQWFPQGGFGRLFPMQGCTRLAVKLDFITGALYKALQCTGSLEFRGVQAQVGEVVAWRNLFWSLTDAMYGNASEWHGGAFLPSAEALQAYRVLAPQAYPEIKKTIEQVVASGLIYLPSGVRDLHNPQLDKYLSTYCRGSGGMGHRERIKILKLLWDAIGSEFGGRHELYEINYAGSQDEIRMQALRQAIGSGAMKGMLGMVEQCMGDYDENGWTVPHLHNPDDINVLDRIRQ

HpaC [3] = target: T2, HpaC (Pseudomonas aeruginosa, UniProt Q9HWT6); test: stopped-flow; type: binding
T2 sequence (Q9HWT6 1-170): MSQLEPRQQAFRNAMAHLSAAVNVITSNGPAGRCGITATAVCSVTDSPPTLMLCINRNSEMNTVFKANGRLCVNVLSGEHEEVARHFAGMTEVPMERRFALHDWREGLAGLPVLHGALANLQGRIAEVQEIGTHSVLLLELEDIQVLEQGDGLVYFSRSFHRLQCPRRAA

HpaC [4] = target: T2, HpaC; test: fluorimetric titration; type: binding
HpaA [5] = target: T1, HpaA; test: absorption spectral titration; type: binding

For “HpaA, oxygenase of p-hydroxyphenylacetate 3-hydroxylase (HPAH) from Pseudomonas aeruginosa, N-terminal His-tagged (enzyme)”, the stoichiometry N [1] was 2.
`Cc1cc2c(cc1C)N(C[C@H](O)[C@H](O)[C@H](O)COP(=O)(O)OP(=O)(O)OC[C@H]1O[C@@H](n3cnc4c(N)ncnc43)[C@H](O)[C@@H]1O)c1[nH]c(=O)[nH]c(=O)c1N2` [FADH^−] was tested, and the Kd (HpaA [2]) was ≤ 2 µM and the Kd (HpaC [3]) was ~20 µM.
`Cc1cc2nc3c(=O)[nH]c(=O)nc-3n(C[C@H](O)[C@H](O)[C@H](O)COP(=O)(O)OP(=O)(O)OC[C@H]3O[C@@H](n4cnc5c(N)ncnc54)[C@H](O)[C@@H]3O)c2cc1C` [FAD] was tested, and the Kd (HpaC [4]) was 3 µM and the Kd (HpaA [5]) was ≥ 250 µM.
